Consider two compounds from publication PMC8887546, “Design and Synthesis of Brain Penetrant Glycopeptide Analogues of PACAP With Neuroprotective Potential for Traumatic Brain Injury and Parkinsonism” (Frontiers in drug discovery, 2022).

Test [1] has as its system C57BL/6 mice, diffuse TBI. In words: Sleep-wake parameters (piezoelectric sleep cage) after TBI. Type of test: in vivo, mouse. The note with it: 10 mg/kg i.p. 30 min prior to TBI. Here is the method:
30 min prior to TBI or sham injury, mice were randomly assigned to a therapeutic group and received an intraperitoneal injection of 2LS80Mel (10 mg/kg) or sterile saline (0.25 ml). Groups were as follows: TBI-2LS80Mel n = 17; TBI-vehicle n = 17; sham n = 22 (vehicle n = 11, 2LS80Mel n = 11).
Mice (19–24 g) were subjected to midline fluid percussion injury (mFPI) consistent with methods previously described ([Lifshitz, 2009]; [Harrison et al., 2014]; [Rowe et al., 2014a]; [Rowe et al., 2014b]; [Rowe et al., 2014c]). Mice were anesthetized using 5% isoflurane in 100% oxygen for 5 min and the head of the mouse was placed in a stereotaxic frame with continuously delivered isoflurane at 2.5% via nosecone. […] The injury hub was closed using a Luer-Loc cap and mice were placed in a heated recovery cage and monitored until they were ambulatory before being returned to their respective sleep cages.
For injury induction 24 h post-surgery, mice were re-anesthetized with 5% isoflurane delivered for 3 min. […] Injured mice were monitored for presence of a forearm fencing response and righting reflex times were recorded as indicators of injury severity ([Hosseini and Lifshitz, 2009]). […] After spontaneously righting, mice were placed in a heated recovery cage and monitored until they were ambulatory (approximately 5–15 min) before being returned to their piezoelectric sleep cage (see below). […]

The target in test [2] is T1, human PAC1 receptor (Homo sapiens, UniProt P41586).
T1 construct: expressed in transfected cells; host or cells: CHO cells (G418 selection)
T1 sequence (P41586 21-468): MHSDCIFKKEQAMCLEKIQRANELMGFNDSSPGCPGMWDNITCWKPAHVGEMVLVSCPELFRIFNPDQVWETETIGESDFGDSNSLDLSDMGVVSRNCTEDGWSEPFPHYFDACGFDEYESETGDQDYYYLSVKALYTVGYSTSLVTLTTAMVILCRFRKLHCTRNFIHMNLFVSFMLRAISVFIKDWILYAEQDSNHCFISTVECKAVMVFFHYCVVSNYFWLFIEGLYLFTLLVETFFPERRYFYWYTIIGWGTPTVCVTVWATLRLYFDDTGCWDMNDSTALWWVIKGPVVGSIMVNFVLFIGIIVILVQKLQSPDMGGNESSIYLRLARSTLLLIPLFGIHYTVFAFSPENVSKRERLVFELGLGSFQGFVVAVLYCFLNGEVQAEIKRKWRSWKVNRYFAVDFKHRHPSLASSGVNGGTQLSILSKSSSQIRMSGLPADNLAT
The test can be described thus: cAMP stimulation in CHO cells expressing PAC1. Type of test: cell-based. The essentials: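 Serum-starved CHO cells expressing human receptors were pre-treated 20 min with 500 μM IBMX, then exposed to agonist concentration curves for 10 min in 500 μM IBMX. cAMP quantified by competition with bovine PKA and ^3H-cAMP (1 h, room temperature), scintillation read.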

Test [3] addresses T2, human VPAC1 receptor (Homo sapiens, UniProt P32241).
T2 construct: expressed in transfected cells; host or cells: CHO cells (G418 selection)
T2 sequence (P32241 31-457): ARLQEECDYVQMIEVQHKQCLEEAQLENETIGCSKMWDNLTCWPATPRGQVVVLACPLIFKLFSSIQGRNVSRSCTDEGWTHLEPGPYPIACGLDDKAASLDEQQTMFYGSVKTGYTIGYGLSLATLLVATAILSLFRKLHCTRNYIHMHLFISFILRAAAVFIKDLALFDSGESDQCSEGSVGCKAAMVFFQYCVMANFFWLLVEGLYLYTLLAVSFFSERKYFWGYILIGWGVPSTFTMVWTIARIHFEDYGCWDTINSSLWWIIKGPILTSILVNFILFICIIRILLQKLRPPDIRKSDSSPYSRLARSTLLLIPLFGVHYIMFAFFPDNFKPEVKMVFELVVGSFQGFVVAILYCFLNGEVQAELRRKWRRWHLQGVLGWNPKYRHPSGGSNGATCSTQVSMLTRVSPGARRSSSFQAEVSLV
In words: cAMP stimulation in CHO cells expressing VPAC1. The class given is cell-based.

As for `CC[C@H](C)[C@H](NC(=O)CNC(=O)[C@H](CC(=O)O)NC(=O)[C@H](CO)NC(=O)[C@@H](N)Cc1c[nH]cn1)C(=O)N[C@@H](Cc1ccccc1)C(=O)N[C@H](C(=O)N[C@@H](CC(=O)O)C(=O)N[C@@H](CO)C(=O)N[C@@H](Cc1ccc(O)cc1)C(=O)N[C@@H](CO)C(=O)N[C@@H](CCCNC(=N)N)C(=O)N[C@@H](Cc1ccc(O)cc1)C(=O)N[C@@H](CCCNC(=N)N)C(=O)N[C@@H](CCCCN)C(=O)N[C@@H](CCC(N)=O)C(=O)N[C@@H](CC(C)C)C(=O)N[C@@H](C)C(=O)N[C@H](C(=O)N[C@@H](CCCCN)C(=O)N[C@@H](CCCCN)C(=O)N[C@@H](Cc1ccc(O)cc1)C(=O)N[C@@H](CC(C)C)C(=O)N[C@@H](C)C(=O)N[C@@H](C)C(=O)N[C@H](C(=O)N[C@@H](CC(C)C)C(=O)N[C@@H](CO[C@@H]1O[C@H](CO[C@H]2O[C@H](CO)[C@H](O)[C@H](O)[C@H]2O)[C@@H](O)[C@H](O)[C@H]1O)C(N)=O)C(C)C)C(C)C)[C@@H](C)O` [Compound 2LS80Mel], in test [1], the “Cumulative minutes slept in the first 6 h post-injury” value is given as “slept comparable minutes to uninjured sham animals” and the “Sleep in the first dark period” value is “prevented this injury-induced increase in sleep”.

With `[2H]C([2H])([2H])C([2H])(C([2H])([2H])[2H])[C@]([2H])(NC(=O)[C@H](C)NC(=O)[C@H](C)NC(=O)[C@H](CC(C)C)NC(=O)[C@H](Cc1ccc(O)cc1)NC(=O)[C@H](CCCCN)NC(=O)[C@H](CCCCN)NC(=O)[C@@]([2H])(NC(=O)[C@H](C)NC(=O)[C@H](CC(C)C)NC(=O)[C@H](CCC(N)=O)NC(=O)[C@H](CCCCN)NC(=O)[C@H](CCCNC(=N)N)NC(=O)[C@H](Cc1ccc(O)cc1)NC(=O)[C@H](CCCNC(=N)N)NC(=O)[C@H](CO)NC(=O)[C@H](Cc1ccc(O)cc1)NC(=O)[C@H](CO)NC(=O)[C@H](CC(=O)O)NC(=O)[C@@H](NC(=O)[C@H](Cc1ccccc1)NC(=O)[C@@H](NC(=O)CNC(=O)[C@H](CC(=O)O)NC(=O)[C@H](CO)NC(=O)[C@@H](N)Cc1c[nH]cn1)[C@@H](C)CC)[C@@H](C)O)C([2H])(C([2H])([2H])[2H])C([2H])([2H])[2H])C(=O)N[C@@H](CC(C)C)C(=O)N[C@@H](CO[C@@H]1O[C@H](CO)[C@@H](O[C@@H]2O[C@H](CO)[C@H](O)[C@H](O)[C@H]2O)[C@H](O)[C@H]1O)C(N)=O` [Compound 2LS98Lac], the EC50 (as a rule, the concentration that produces a half-maximal response) in test [2] was found to be 0.72 nM; in test [3] (read-out: VPAC1 EC50), 0.45 nM. The Emax (usually the maximal effect, on the per cent scale that the assay sets) in test [2] (CHO) turned out to be 93%; in test [3] (CHO, read-out: VPAC1 Emax), 101%. For the same compound, the “Receptor selectivity ratio VPAC1/PAC1” value in test [3] (ratio of cAMP EC50 values) amounted to 0.63.
